PMC7700685 (International Journal of Molecular Sciences, 2020)
Where “and” joins values, the source holds several entries; their conditions need not be identical. Identical values can stand only once. Entries after “also recorded” stand apart in the source; their conditions may differ. Like-named read-outs stand apart in the source and are kept apart here. Values belong to the compound of their own block, whether it stands above or below them.

Experiments:
U251MG cells = assay: MTT cell viability assay; details: 72 h
Method: (§2) MTT assays were used to test cell toxicity of compounds. […] After incubation with MTT for 4 h at 37 °C, the culture medium was aspirated and 200 µL DMSO was added to each well to dissolve the formazan crystals, then the absorbance was measured at 540 nm using a Victor 3 Microplate reader (PerkinElmer, Waltham, MA, USA).

[1] = human; N-dealkylation of the aminomethyl substituent, major metabolite TH586; no reference given; cited from earlier work
MTH1 [2] = target: T1, MTH1 (Homo sapiens, UniProt P36639); assay: MTH1 enzymatic inhibition assay (PPiLight inorganic pyrophosphate bioluminescent assay); assay type: biochemical; details: substrate dGTP 100 uM, recombinant MTH1 0.5 nM; for IC50: read-out: IC50 inhibiting MTH1 hydrolase activity
Method: (§1) The enzymatic hydrolysis of dGTP by purified human recombinant MTH1 to form dGMP and pyrophosphate was applied for screening purposes using a PPiLightTM inorganic pyrophosphate bioluminescent assay—according to published procedures. After shaking and color development, the plates were analyzed in a Victor 3 Microplate reader (PerkinElmer, Waltham, MA, USA) for luminescence. The inhibition assays were conducted using a series of dilutions of standard compounds and new MTH1 inhibitors. The IC50 values were determined by fitting a dose-response curve to the data points using nonlinear regression.

[3] = MicroPET imaging of normal mice with [11C]TH287; assay type: in vivo
Method: The Washington University Animal Studies Committee approved all procedures used for the mouse experiments described in the present study under ACS# 20,170,165 (approved on 9/1/2017). Overall care of the animals was consistent with The Guide for the Care and Use of Laboratory Animals from the National Research Council and the USDA Animal Care Resource Guide. Four male athymic nude mice ([…], 8 weeks old), purchased from Charles River Laboratories (Wilmington, MA, USA), were included for the preliminary microPET imaging evaluation of MTH1 in vivo. […] The imaging sessions were 1 h dynamic scans using the MicroPET® Focus 220 and Inveon scanners (Siemens Medical Solutions USA Molecular Imaging, Knoxville, TN, USA). Acquired list mode data were histogrammed into a 3D set of sinograms and binned to the following time frames: 5 × 60 s, 5 × 2 min, and 9 × 5 min. Sinogram data was then processed using a filter back-projection algorithm with attenuation and scatter corrections. […] The software Acquisition Sinogram Image PROcessing using IDL’s Virtual Machine^TM (ASIPro VM^TM) (Siemens Medical Solutions USA Molecular Imaging, Knoxville, TN, USA) was used to draw ROI and obtain the radioactivity uptake (nCi/c.c.) curve over the time course of the scan, and the uptake data were further normalized by the injected radioactivity dose to get %I.D./cc.

in vitro = details: human
Method: as §2

MTH1 [4] = target: T1, MTH1; assay: Competitive inhibition (kinetics) assay of MTH1 hydrolase; assay type: biochemical
Method: as §1

[5] = mouse; N-dealkylation of the aminomethyl substituent, major metabolite TH586; no reference given; cited from earlier work
MTH1 [6] = target: T1, MTH1; assay: Competitive binding against [3H]TH287 in live U251MG cells; set-up: endogenous in cells; host or cells: U251MG glioblastoma cells
Method: The final concentration of the radioligand in each assay was 4 nM. […] After the reaction was completed, the cells were washed once with ice-cold PBS and the bound radioactivity was counted and analyzed as described above. Nonspecific binding was determined from cells treated with 10 µM TH086. Raclopride, a well-reported selective antagonist for dopamine D₂ receptors, was also used to validate the assay.
The values for Bns and B0 were constrained using experimentally derived values.
Data from competitive radioligand binding studies were transformed to determine the pseudo-Hill coefficient, n’H, defined as:(4) logBs/B0−Bs=n′HlogI−n′HlogIC50
n’H, which is the negative of the Hill slope, was readily determined from the plot of logBs/B0−Bs versus logI .

beta-tubulin = details: cited from earlier work
MTH1 [7] = target: T1, MTH1; details: 'it has been reported', no reference given; cited from earlier work

Compound: C[C@H](Oc1cc(-c2cnn(C3CCNCC3)c2)cnc1N)c1c(Cl)ccc(F)c1Cl [(S)-crizotinib]
- cell viability compared with vehicle control (U251MG cells; 10 µM): 92.95%
- cell viability compared with vehicle control (U251MG cells; 30 µM): 0.14%

Compound: CNc1cc(-c2cccc(Cl)c2Cl)nc(N)n1 [TH287, 6-(2,3-Dichlorophenyl)-N4-methylpyrimidine-2,4-diamine]
- metabolism in liver microsomes [1]: rapidly metabolized
- IC50 (MTH1 [2]): 2.2 nM
- blood-brain barrier penetration ([3]; microPET): penetrates the blood-brain barrier of mice with a fast clearance
- viability at 72 h, 30 µM (in vitro): 88.9%
- Kmapp of MTH1 (MTH1 [4]; 2.5 nM TH287 present (Km 305 µM without)): 892 µM
- Ki (MTH1 [4]; MTH1 0.5 nM, dGTP 0 to 5000 uM, read-out: Ki from kinetics assays): ~1.3 nM and 1.3 nM
- metabolism in liver microsomes [5]: rapidly metabolized
- Ki (MTH1 [6]): 3.04 ± 0.14 nM
- pseudo-Hill coefficient n'H (MTH1 [6]; U251MG cells): 0.88 and 0.88 ± 0.06
- concentration inhibiting in vitro beta-tubulin polymerization (beta-tubulin): higher than 30 µM

Compound: Nc1nc(NC2CC2)cc(-c2cccc(Cl)c2Cl)n1 [TH588]
- concentration inhibiting in vitro beta-tubulin polymerization (beta-tubulin): higher than 30 µM

Compound: [11CH3]Nc1cc(-c2cccc(Cl)c2Cl)nc(N)n1 [[^11C]TH287]
- uptake and clearance from brain, heart and kidney ([3]; ~0.4 mCi via tail vein, 1 h dynamic scan): gets into the brain with rapid clearance from the brain, kidney, and heart; also recorded: high initial uptake and fast clearance; also recorded: rapid brain uptake and fast clearance

Compound: Nc1cc(-c2cccc(Cl)c2Cl)nc(N)n1 [TH586]
- IC50 (MTH1 [7]): 77 nM

- IC50 inhibiting MTH1 hydrolase activity (MTH1 [2]): no inhibition
- IC50 (MTH1 [2]): > 10000 nM
- Ki (competitive binding) (MTH1 [6]; U251MG cells, 4 nM [3H]TH287, Cheng-Prusoff): No binding was detected
- Ki (MTH1 [6]; read-out: Ki (competitive binding)): > 10000 nM
Compound: CCN1CCC[C@H]1CNC(=O)c1c(O)c(Cl)cc(Cl)c1OC [Raclopride]
